The source of these data is patent publication US20240317780A1, “RADIOPHARMACEUTICAL SOMATOSTATIN RECEPTOR LIGANDS AND PRECURSORS THEREOF” (Technische Universität München, priority 2021, published 2024).

One series has as its target T1, SST2 (Homo sapiens, UniProt P30874).
T1 construct: expressed in transfected cells; host or cells: CHO (Chinese hamster ovary) cells
Put plainly: Determination of IC50: competitive binding against [125I]TOC on SST2-transfected CHO cells. The settings on record: [125I]TOC reference radioligand, 60 min room temperature.

Series [1] can be described thus: Biodistribution of 18F-labeled SST2 ligands in AR42J tumor-bearing mice. The following applies: female, CD1 nu/nu, mouse, iv, total radioactivity, 1 h post injection, tail vein. The series is classed as in vivo. On the procedure: All animal experiments were conducted in accordance with general animal welfare regulations in Germany and the institutional guidelines for the care and use of animals. To establish tumor xenografts, AR42J cells (5×10^6 cells/100 μL) were suspended in Dulbecco modified Eagle medium/Nutrition Mixture F-12 with Glutamax-1 (1:1) and inoculated subcutaneously onto the right shoulder of 8 weeks old, female CD1 nu/nu mice (Charles River, Sulzfeld, Germany). Mice were used for experiments when tumors had grown to a diameter of 5-9 mm (7-15 days after inoculation).
Approximately 0.5-2.0 MBq (0.05-0.25 nmol) of the ^18F-labeled SST2-ligands were injected into the tail vein of AR42J tumor-bearing female CD1 nu/nu mice and sacrificed after 1 h post injection (n=3-5). Selected organs were removed, weighted and measured in a γ-counter.
The Tables 4, 5, and 6 summarize the results of the in vivo mouse experiments. For all biodistribution studies, female CD1 nu/nu mice with AR42J tumor xenografts, were used and sacrificed 1 h post injection.

A short description of series [2]: Octanol-water distribution coefficient (logD pH 7.4) of the labeled tracer. The series is classed as physicochemical. The following applies: n-octanol/PBS pH 7.4, room temperature. In outline: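 About 1 MBq tracer partitioned in 1:1 PBS pH 7.4/n-octanol, mixed 3 min at room temperature, centrifuged 15000 g for 5 min. Both layers counted by gamma counter; at least six repeats.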

For another series, the target named is HSA (Homo sapiens, UniProt P02768). Put plainly: HSA binding by RIAC method (gel filtration, apparent molecular weight). The class given is in vitro ADME. The settings on record: HSA binding as apparent molecular weight, 700 μM HSA in PBS mobile phase. On the procedure: A gel filtration column Superdex 75 Increase 10/300 GL (GE Healthcare, Uppsala, Sweden) was beforehand calibrated following the producer's recommendations with a commercially available gel filtration calibration kit (GE Healthcare, Buckinghamshire, UK) comprising conalbumin (MW: 75 kDa), ovalbumin (44 kDa), carbonic anhydrase (29 kDa), ribonuclease A (13.7 kDa) and aprotinin (6.5 kDa) as reference proteins of known molecular weight. AMSEC experiments were conducted using a constant flow rate of 0.8 mL/min at rt. A solution of HSA in PBS at physiological concentration (700 μM) was used as the mobile phase. SST2 ligands were labelled as described with molar activities of 10-20 GBq/μmol. Probes of 1.0 MBq of the radioligand were injected directly from the labelling solution. HSA binding was expressed as an apparent molecular weight MW calculated from the retention time of the radioligand using the determined calibration curve.
HSA, sequence (P02768 25-609): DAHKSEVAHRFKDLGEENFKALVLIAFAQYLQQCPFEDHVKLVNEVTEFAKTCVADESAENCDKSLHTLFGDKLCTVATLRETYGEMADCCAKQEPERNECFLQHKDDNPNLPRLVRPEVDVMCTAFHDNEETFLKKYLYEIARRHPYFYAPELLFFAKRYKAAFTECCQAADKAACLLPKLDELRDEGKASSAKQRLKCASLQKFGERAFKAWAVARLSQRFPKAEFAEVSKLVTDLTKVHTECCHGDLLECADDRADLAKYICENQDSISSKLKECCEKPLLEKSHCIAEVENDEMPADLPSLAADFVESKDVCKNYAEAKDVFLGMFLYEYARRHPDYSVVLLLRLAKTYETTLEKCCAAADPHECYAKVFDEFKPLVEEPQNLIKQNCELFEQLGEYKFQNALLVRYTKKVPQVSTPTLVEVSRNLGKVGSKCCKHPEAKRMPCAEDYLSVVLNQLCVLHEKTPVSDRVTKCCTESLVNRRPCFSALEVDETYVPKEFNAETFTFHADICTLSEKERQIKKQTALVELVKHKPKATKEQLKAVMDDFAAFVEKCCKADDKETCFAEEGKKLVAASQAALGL
For evaluation, experimentally determined retention times tR are first converted into elution volumes Ve by multiplying with the flow rate and thereafter converted into partition coefficients Kav following the equation
where V0 is the column void volume (8.027 mL) and Vc is the geometric column volume (24 mL). Using the equation given by the trend line plot of the column calibration
the apparent molecular weight MW is calculated as […]
(In general: SEC sorts molecules by how far they enter the pores of the column.)

Molecules are shown by their SMILES. Where two headings read alike, the source gives them in different places. Where a SMILES comes first, the peptide text is derived from it. Bridges are numbered along the chain shown (N, C = ends). [ ]: non-standard residue; d: D form. The star is where a group is joined. ξ: configuration not given here. Benzoyl(4-SiFtBu2) = CC(C)(C)[Si](F)(c1ccc(C(=O)*)cc1)C(C)(C)C; DO3AM = NC(=O)CN1CCN(CC(N)=O)CCN(CC(=O)*)CCN(CC(N)=O)CC1; ξW = NC(Cc1c[nH]c2ccccc12)C(=O)O; dDap = NC[C@@H](N)C(=O)O; ξF = NC(Cc1ccccc1)C(=O)O; ξD = NC(CC(=O)O)C(=O)O; ξDap = NCC(N)C(=O)O; ξC = NC(CS)C(=O)O

T1 sequence (P30874 whole entry, species assumed): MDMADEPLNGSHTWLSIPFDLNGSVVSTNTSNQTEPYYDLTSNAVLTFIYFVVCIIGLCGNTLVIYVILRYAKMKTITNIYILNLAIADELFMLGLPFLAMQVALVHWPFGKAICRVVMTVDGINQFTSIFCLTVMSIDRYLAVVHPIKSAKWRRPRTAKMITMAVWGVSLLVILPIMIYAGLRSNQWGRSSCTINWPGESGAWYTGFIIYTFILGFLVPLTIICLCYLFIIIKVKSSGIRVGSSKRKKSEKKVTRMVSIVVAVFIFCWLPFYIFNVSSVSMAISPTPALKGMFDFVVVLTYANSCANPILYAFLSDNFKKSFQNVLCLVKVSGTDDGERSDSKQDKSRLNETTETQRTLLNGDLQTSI

Broadly, the IC50 is the concentration needed to halve the response being measured. `C[C@@H](O)[C@H](NC(=O)C1CSSCC(NC(=O)C(Cc2ccccc2)NC(=O)CNC(=O)CNC(=O)[C@@H](CC(=O)O)NC(=O)C(CC(=O)O)NC(=O)[C@@H](CNC(=O)CN2CCN(CC(N)=O)CCN(CC(N)=O)CCN(CC(N)=O)CC2)NC(=O)C(CN)NC(=O)c2ccc([Si](F)(C(C)(C)C)C(C)(C)C)cc2)C(=O)N[C@@H](Cc2ccc(O)cc2)C(=O)NC(Cc2c[nH]c3ccccc23)C(=O)N[C@@H](CCCCN)C(=O)N[C@@H]([C@@H](C)O)C(=O)N1)C(=O)O` (stereo partly shown) [[Pb]36] ({Benzoyl(4-SiFtBu2)}-[ξDap][dDap](DO3AM)[ξD][dD]GG[ξF][ξC]Y[ξW]KT[ξC]T-OH; disulfide 8-13) returned an IC50 on SST2 of 6.57 ± 0.32 nM. Also, the tissue uptake at 1 h in series [1] (AR42J tumor, AR42J tumor, read-out: Tumor % ID/g ± SD) was determined as 22.3 ± 3.85 %ID/g; in series [1] (adrenal glands, read-out: Adrenal glands % ID/g ± SD) it was 2 ± 0.27 %ID/g; in series [1] (blood, read-out: Blood % ID/g ± SD), 1.3 ± 0.21 %ID/g; in series [1] (bone, read-out: Bone % ID/g ± SD) it was 3.38 ± 0.7 %ID/g; in series [1] (heart, read-out: Heart % ID/g ± SD), 0.71 ± 0.09 %ID/g; in series [1] (intestine, read-out: Intestine % ID/g ± SD) it was 1.31 ± 0.21 %ID/g. For the same compound, the tissue uptake at 1 h in series [1] (kidneys, read-out: Kidneys % ID/g ± SD) worked out at 43 ± 6.22 %ID/g; in series [1] (liver, read-out: Liver % ID/g ± SD) it was 8.47 ± 1.23 %ID/g; in series [1] (lung, read-out: Lung % ID/g ± SD), 2.42 ± 0.5 %ID/g; in series [1] (muscle, read-out: Muscle % ID/g ± SD), 0.47 ± 0.08 %ID/g; in series [1] (pancreas, read-out: Pancreas % ID/g ± SD), 9.09 ± 1.79 %ID/g; in series [1] (spleen, read-out: Spleen % ID/g ± SD), 0.84 ± 0.17 %ID/g. The tissue uptake at 1 h in series [1] (stomach, read-out: Stomach % ID/g ± SD) came out at 4.32 ± 0.81 %ID/g. The “LogDpH=7.4” value in series [2] is reported as −1.82 ± 0.05. For the same compound, the HSA on HSA turned out to be 20.22 kDa.
